Literature values as cited in patent US10590413B2, “Chiral control” (WAVE LIFE SCIENCES LTD., priority 2012, dated 2020).
Read-outs that look alike come from different tables or passages of the source.

Legend:
Mouse B Cells = details: mean and std. dev. of at least 3 experiments, compared to wells with no added ODN, cited from earlier work
NK activity = details: cited from earlier work; for % 2C11 Specific Lysis, Effector:Target 50:1 / % 2C11 Specific Lysis, Effector:Target 100:1: 2C11 targets; for % YAC-1 Specific Lysis, Effector:Target 50:1 / % YAC-1 Specific Lysis, Effector:Target 100:1: YAC-1 targets
human PBMC = details: cited from earlier work
[1] = system: Murine IL-6 production and B cell activation; details: cited from earlier work; for IL-6 (pg/ml) CH12.LX: CH12.LX cells; for SI (stimulation index, [3H] uridine uptake, fold increase from unstimulated control): cells stimulated with 20 μM CpG O-ODN; for SI (stimulation index, [3H] uridine uptake, fold increase from unstimulated control) / SI (stimulation index, [3H] uridine uptake): mean ± SD of triplicates; for SI (stimulation index, [3H] uridine uptake): fold increase from unstimulated control, 20 μM CpG O-ODN; for IgM: unstimulated culture 547 ± 82 ng/ml; for IL-6 (pg/ml) SPLENIC B CELL: splenic B cells
NK Lytic Activity = details: cited from earlier work; for NK Lytic Activity (LU): human PBMC cultured with ODN 6 μg/ml for 24 hr, lysis of 51Cr-labeled K562 cells; for LU (NK lytic activity): human PBMC, ODN 6 μg/ml for 24 hr, lysis of Cr-labeled K562 cells, cells alone 0.01
[2] = ODN 12 μg/ml, 4 hr, 10% autologous serum, level above wells with no ODN, ELISA
[3] = ODN 12 μg/ml, 24 hr, 10% autologous serum, level above wells with no ODN, ELISA
[4] = unstimulated control ≤10 pg/ml, US 6,239,116 Table 2

1 (DNA GCTAGACGTTAGCGT; chemistry not given here) [Oligonucleotide 1]
Stimulation Index, 3H Uridine (Mouse B Cells; US 6,239,116 Table 1): 6.1 ± 0.8 | Stimulation Index, IgM Production (Mouse B Cells; US 6,239,116 Table 1): 17.9 ± 3.6 | Stimulation Index, 3H Uridine (Mouse B Cells): 6.1 ± 0.8 | % 2C11 Specific Lysis, Effector:Target 50:1 (NK activity; Effector:Target 50:1): 38.7% | % 2C11 Specific Lysis, Effector:Target 100:1 (NK activity; Effector:Target 100:1): 47.2% | % 2C11 Specific Lysis (NK activity; Effector:Target 50:1): 38.7% | % YAC-1 Specific Lysis (NK activity; Effector:Target 50:1): 16.1% | % 2C11 Specific Lysis (NK activity; Effector:Target 100:1): 47.2% | % YAC-1 Specific Lysis (NK activity; Effector:Target 100:1): 24.5% | % YAC-1 Specific Lysis, Effector:Target 50:1 (NK activity; Effector:Target 50:1): 16.1% | % YAC-1 Specific Lysis, Effector:Target 100:1 (NK activity; Effector:Target 100:1): 24.5%

3Dd (DNA GAGAACGCTGGACCTTCCAT; Z modified cytosine, further chemistry not given here) [Oligonucleotide 3Dd]
Stimulation Index, 3H Uridine (Mouse B Cells; US 6,239,116 Table 1): 1.2 ± 0.2 | Stimulation Index, IgM Production (Mouse B Cells; US 6,239,116 Table 1): 1.0 ± 0.4 | Stimulation Index, 3H Uridine (Mouse B Cells): 1.2 ± 0.2 | % 2C11 Specific Lysis, Effector:Target 50:1 (NK activity; Effector:Target 50:1): 37.0% | % 2C11 Specific Lysis, Effector:Target 100:1 (NK activity; Effector:Target 100:1): 40.0% | % 2C11 Specific Lysis (NK activity; Effector:Target 50:1): 37.0% | % YAC-1 Specific Lysis (NK activity; Effector:Target 50:1): 17.1% | % 2C11 Specific Lysis (NK activity; Effector:Target 100:1): 40.0% | % YAC-1 Specific Lysis (NK activity; Effector:Target 100:1): 27.0% | % YAC-1 Specific Lysis, Effector:Target 50:1 (NK activity; Effector:Target 50:1): 17.1% | % YAC-1 Specific Lysis, Effector:Target 100:1 (NK activity; Effector:Target 100:1): 27.0%

1637 (DNA TCCATGCCGGTCCTGATGCT; chemistry not given here) [Oligonucleotide 1637]
TNF-α (human PBMC; [2]): 16 pg/mL | GM-CSF (human PBMC; [3]): 15.6 pg/mL | IFN-γ (human PBMC; [3]): 7.8 pg/mL | IL-6 (human PBMC; [3]): 550 pg/mL | IL-12 (human PBMC; [3]): 16 pg/mL | GM-CSF (human PBMC): 15.6 | IFN-γ (human PBMC): 7.8 | IL-6 (human PBMC): 550 | IL-12 (human PBMC): 35 | TNF-α (human PBMC): 16 | IL-6 (pg/ml) CH12.LX [1]: 136 ± 27 pg/mL | IL-6 (pg/ml) CH12.LX [1, 4]: 136 ± 27 pg/mL | SI (stimulation index, [3H] uridine uptake, fold increase from unstimulated control) [1]: 1.7 ± 0.2 | SI (stimulation index, [3H] uridine uptake) [1]: 1.7 ± 0.2 | IgM ([1]; measured by ELISA): 770 ± 72 ng/mL | IL-6 (pg/ml) SPLENIC B CELL [1]: 46 ± 6 pg/mL | IL-6 (pg/ml) SPLENIC B CELL [1, 4]: 46 ± 6 pg/mL

1639 (DNA TCCATAACGTTCCTGATGCT; chemistry not given here) [Oligonucleotide 1639]
TNF-α (human PBMC; [2]): 220 pg/mL | GM-CSF (human PBMC; [3]): 40 pg/mL | IFN-γ (human PBMC; [3]): 15.6 pg/mL | IL-6 (human PBMC; [3]): 625 pg/mL | IL-12 (human PBMC; [3]): 220 pg/mL | GM-CSF (human PBMC): 40 | IFN-γ (human PBMC): 15.6 | IL-6 (human PBMC): 625 | IL-12 (human PBMC): 60 | TNF-α (human PBMC): 220 | IL-6 (pg/ml) CH12.LX [1]: 1827 ± 83 pg/mL | IL-6 (pg/ml) CH12.LX [1, 4]: 1827 ± 83 pg/mL | IgM ([1]; ELISA): 9489 ± 103 ng/mL | SI (stimulation index, [3H] uridine uptake, fold increase from unstimulated control) [1]: 11.5 ± 0.4 | SI (stimulation index, [3H] uridine uptake) [1]: 11.5 ± 0.4 | IgM ([1]; measured by ELISA): 9439 ± 103 ng/mL | IL-6 (pg/ml) SPLENIC B CELL [1]: 2012 ± 132 pg/mL | IL-6 (pg/ml) SPLENIC B CELL [1, 4]: 2012 ± 132 pg/mL

1707 (DNA TCCATGACGTCCCTGATGCT; chemistry not given here) [Oligonucleotide 1707]
TNF-α (human PBMC; [2]): 70 pg/mL | GM-CSF (human PBMC; [3]): 0 pg/mL | IFN-γ (human PBMC; [3]): 17 pg/mL | IL-6 (human PBMC; [3]): 300 pg/mL | IL-12 (human PBMC; [3]): 70 pg/mL | GM-CSF (human PBMC): 0 | IFN-γ (human PBMC): 17 | IL-6 (human PBMC): 300 | IL-12 (human PBMC): 0 | TNF-α (human PBMC): 70 | SI (stimulation index, [3H] uridine uptake, fold increase from unstimulated control) [1]: 4.0 ± 0.2 | SI (stimulation index, [3H] uridine uptake) [1]: 4.0 ± 0.2 | IgM ([1]; measured by ELISA): 3534 ± 217 ng/mL | IL-6 (pg/ml) SPLENIC B CELL [1]: 1147 ± 175 pg/mL | IL-6 (pg/ml) SPLENIC B CELL [1, 4]: 1147 ± 175 pg/mL

1708 (DNA TCCATCACGTGCCTGATGCT; chemistry not given here) [Oligonucleotide 1708]
TNF-α (human PBMC; [2]): 10 pg/mL | IFN-γ (human PBMC; [3]): 17 pg/mL | IL-6 (human PBMC; [3]): 270 pg/mL | IL-12 (human PBMC; [3]): 10 pg/mL | GM-CSF (human PBMC): 0 | IFN-γ (human PBMC): 17 | IL-6 (human PBMC): 270 | IL-12 (human PBMC): 0 | TNF-α (human PBMC): 10 | SI (stimulation index, [3H] uridine uptake, fold increase from unstimulated control) [1]: 1.5 ± 0.1 | SI (stimulation index, [3H] uridine uptake) [1]: 1.5 ± 0.1 | IgM ([1]; measured by ELISA): 466 ± 109 ng/mL | IL-6 (pg/ml) SPLENIC B CELL [1]: 59 ± 3 pg/mL | IL-6 (pg/ml) SPLENIC B CELL [1, 4]: 59 ± 3 pg/mL

1754 (DNA ACCATGGACGATCTGTTTCCCCTC; chemistry not given here) [Oligonucleotide 1754]
NK Lytic Activity (LU) (NK Lytic Activity): 0.02 LU | LU (NK lytic activity) (NK Lytic Activity): 0.02 LU

1761 (DNA TACCGCGTGCGACCCTCT; chemistry not given here) [Oligonucleotide 1761]
NK Lytic Activity (LU) (NK Lytic Activity): 0.05 LU | LU (NK lytic activity) (NK Lytic Activity): 0.05 LU

1776 (DNA ACCATGGACGAACTGTTTCCCCTC; chemistry not given here) [Oligonucleotide 1776]
NK Lytic Activity (LU) (NK Lytic Activity): 0.03 LU | LU (NK lytic activity) (NK Lytic Activity): 0.03 LU

1777 (DNA ACCATGGACGAGCTGTTTCCCCTC; chemistry not given here) [Oligonucleotide 1777]
NK Lytic Activity (LU) (NK Lytic Activity): 0.05 LU | LU (NK lytic activity) (NK Lytic Activity): 0.05 LU

1778 (DNA ACCATGGACGACCTGTTTCCCCTC; chemistry not given here) [Oligonucleotide 1778]
NK Lytic Activity (LU) (NK Lytic Activity): 0.01 LU | LU (NK lytic activity) (NK Lytic Activity): 0.01 LU

1779 (DNA ACCATGGACGTACTGTTTCCCCTC; chemistry not given here) [Oligonucleotide 1779]
NK Lytic Activity (LU) (NK Lytic Activity): 0.02 LU | LU (NK lytic activity) (NK Lytic Activity): 0.02 LU

1780 (DNA ACCATGGACGGTCTGTTTCCCCTC; chemistry not given here) [Oligonucleotide 1780]
NK Lytic Activity (LU) (NK Lytic Activity): 0.29 LU | LU (NK lytic activity) (NK Lytic Activity): 0.29 LU

1781 (DNA ACCATGGACGTTCTGTTTCCCCTC; chemistry not given here) [Oligonucleotide 1781]
NK Lytic Activity (LU) (NK Lytic Activity): 0.38 LU | LU (NK lytic activity) (NK Lytic Activity): 0.38 LU

1823 (DNA GCATGACGTTGAGCT; chemistry not given here) [Oligonucleotide 1823]
NK Lytic Activity (LU) (NK Lytic Activity): 0.08 LU | LU (NK lytic activity) (NK Lytic Activity): 0.08 LU

1824 (DNA CACGTTGAGGGGCAT; chemistry not given here) [Oligonucleotide 1824]
NK Lytic Activity (LU) (NK Lytic Activity): 0.01 LU | LU (NK lytic activity) (NK Lytic Activity): 0.01 LU

1825 (DNA CTGCTGAGACTGGAG; chemistry not given here) [Oligonucleotide 1825]
NK Lytic Activity (LU) (NK Lytic Activity): 0.01 LU | LU (NK lytic activity) (NK Lytic Activity): 0.01 LU

1828 (DNA TCAGCGTGCGCC; chemistry not given here) [Oligonucleotide 1828]
NK Lytic Activity (LU) (NK Lytic Activity): 0.01 LU | LU (NK lytic activity) (NK Lytic Activity): 0.01 LU

1829 (DNA ATGACGTTCCTGACGTT; chemistry not given here) [Oligonucleotide 1829]
NK Lytic Activity (LU) (NK Lytic Activity): 0.42 LU | LU (NK lytic activity) (NK Lytic Activity): 0.42 LU

1834 (DNA TCTCCCAGCGGGCGCAT; chemistry not given here) [Oligonucleotide 1834]
NK Lytic Activity (LU) (NK Lytic Activity): 0.00 LU | LU (NK lytic activity) (NK Lytic Activity): 0.00 LU

1836 (DNA TCTCCCAGCGCGCGCCAT; chemistry not given here) [Oligonucleotide 1836]
NK Lytic Activity (LU) (NK Lytic Activity): 0.46 LU | LU (NK lytic activity) (NK Lytic Activity): 0.46 LU

1842 (DNA TCGTCGCTGTCTCCGCTTCTT; chemistry not given here) [Oligonucleotide 1842]
NK Lytic Activity (LU) (NK Lytic Activity): 0.06 LU | LU (NK lytic activity) (NK Lytic Activity): 0.06 LU

1851 (DNA TCCTGACGTTCCTGACGTT; chemistry not given here) [Oligonucleotide 1851]
NK Lytic Activity (LU) (NK Lytic Activity): 2.32 LU | LU (NK lytic activity) (NK Lytic Activity): 2.32 LU
